Target: T1, embryonic ectoderm development (EED) (Homo sapiens, UniProt O75530)
T1 construct: recombinant EED
Assay: SPR (Biacore […], EED immobilized on CM5 chip, […] Langmuir fit); supported by competitive co-IP against EZH2
Type: binding

T1 sequence (O75530 2-441): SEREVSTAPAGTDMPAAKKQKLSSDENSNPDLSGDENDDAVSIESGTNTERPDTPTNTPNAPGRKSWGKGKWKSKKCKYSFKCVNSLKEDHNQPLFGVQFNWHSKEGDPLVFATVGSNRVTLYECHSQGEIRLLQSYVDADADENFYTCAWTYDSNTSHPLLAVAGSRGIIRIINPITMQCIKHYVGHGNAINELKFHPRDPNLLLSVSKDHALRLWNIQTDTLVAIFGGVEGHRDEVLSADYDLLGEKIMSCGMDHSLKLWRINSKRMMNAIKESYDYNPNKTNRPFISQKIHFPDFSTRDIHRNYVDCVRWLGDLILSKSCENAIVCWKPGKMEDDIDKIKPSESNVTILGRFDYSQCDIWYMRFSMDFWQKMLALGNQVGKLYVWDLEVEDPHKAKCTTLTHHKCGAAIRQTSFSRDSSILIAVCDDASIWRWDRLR

With `O=C(O[C@@H]1Cc2c(O)cc(O)cc2O[C@@H]1c1cc(O)c(O)c(O)c1)c1cc(O)c(O)c(O)c1` [1E7, EGCG] the Kd was 15.1 µM.

Reference: article PMC4536998 (Oncotarget, 2015)
